From the NIST ThermoML archive (doi:10.1016/j.jct.2006.08.003)
Numbers after ± are expanded uncertainties.

Assay: mn = molality of the nth substance listed, in mol/kg
Details: 298.15 K, 101 kPa, Liquid; for speed of sound: Sing-around technique in a fixed-path interferometer

N[C@@H](CO)C(=O)O [L-serine] + O
speed of sound (m1 = 0.1015): 1503 ± 1.3 m/s
speed of sound (m1 = 0.1508): 1506.1 ± 1.3 m/s
speed of sound (m1 = 0.1958): 1509 ± 1.3 m/s
speed of sound (m1 = 0.2564): 1512.7 ± 1.3 m/s
speed of sound (m1 = 0.2888): 1514.9 ± 1.3 m/s
speed of sound (m1 = 0.3655): 1519.8 ± 1.3 m/s
mass density (m1 = 0.1015): 1001.52 ± 0.24 kg/m3
mass density (m1 = 0.1508): 1003.67 ± 0.25 kg/m3
mass density (m1 = 0.1958): 1005.62 ± 0.25 kg/m3
mass density (m1 = 0.2564): 1008.21 ± 0.26 kg/m3
mass density (m1 = 0.2888): 1009.59 ± 0.26 kg/m3
mass density (m1 = 0.3655): 1012.8 ± 0.27 kg/m3

C[C@@H](O)[C@H](N)C(=O)O [L-threonine] + O
speed of sound (m1 = 0.1013): 1504.7 ± 1.5 m/s
speed of sound (m1 = 0.1405): 1507.7 ± 1.5 m/s
speed of sound (m1 = 0.1798): 1510.9 ± 1.5 m/s
speed of sound (m1 = 0.2227): 1514.3 ± 1.5 m/s
speed of sound (m1 = 0.2524): 1516.6 ± 1.5 m/s
speed of sound (m1 = 0.2755): 1518.7 ± 1.5 m/s
mass density (m1 = 0.04618): 998.993 ± 0.44 kg/m3
mass density (m1 = 0.1013): 1001.29 ± 0.44 kg/m3
mass density (m1 = 0.1405): 1002.91 ± 0.45 kg/m3
mass density (m1 = 0.1798): 1004.51 ± 0.45 kg/m3
mass density (m1 = 0.2227): 1006.26 ± 0.46 kg/m3
mass density (m1 = 0.2524): 1007.45 ± 0.46 kg/m3
mass density (m1 = 0.2755): 1008.38 ± 0.47 kg/m3

CC(=O)[O-].CC(=O)[O-].[Mg+2] [magnesium acetate] + O
speed of sound (m1 = 0.5): 1571.7 ± 1.4 m/s
speed of sound (m1 = 1): 1630.4 ± 1.4 m/s
speed of sound (m1 = 1.5): 1680.2 ± 1.4 m/s
speed of sound (m1 = 2): 1724.4 ± 1.4 m/s

CC(=O)[O-].[Na+] [sodium ethanoate] + O
speed of sound (m1 = 0.5): 1547.6 ± 1.3 m/s
speed of sound (m1 = 1): 1590.4 ± 1.3 m/s
speed of sound (m1 = 2): 1658 ± 1.4 m/s
speed of sound (m1 = 4): 1761.8 ± 1.4 m/s
